What all share (assay type): cell-based
Assay [1] deals with Mycobacterium kansasii DSM 44,162 (ATCC 12478). The experiment in a line: Antimycobacterial microdilution (resazurin) vs M. kansasii. Conditions: Middlebrook 7H9, resazurin, read-out: MIC M. kansasii. A general note: In broth dilution the organism is exposed to a series of concentrations in liquid medium.
Assay [2] concerns Mycolicibacterium smegmatis DSM 43,465 (ATCC 607). The experiment in a line: Antimycobacterial microdilution (resazurin) vs M. smegmatis. Conditions: Middlebrook 7H9, resazurin, read-out: MIC M. smeg.
Assay [3] relates to Mycolicibacterium aurum DSM 43,999 (ATCC 23366). The assay can be described thus: Antimycobacterial microdilution (resazurin) vs M. aurum. Conditions: Middlebrook 7H9, resazurin, read-out: MIC M. aurum.
Assay [4] deals with Mycobacterium avium DSM 44,156 (ATCC 25291). The assay can be described thus: Antimycobacterial microdilution (resazurin) vs M. avium. Conditions: Mycobacterium avium, Middlebrook 7H9, resazurin; read-out: MIC M. avium.
In assay [5] the test system is Mycobacterium tuberculosis H37Rv CNCTC My 331/88 (ATCC 27294). The assay can be described thus: Microplate Alamar Blue assay vs Mtb H37Rv. Conditions: Mycobacterium tuberculosis, pH 6.6, MABA, Middlebrook 7H9 pH 6.6, recalculated from µg/mL; read-out: MIC Mtb H37Rv.
For assay [6], the system named is Mycobacterium tuberculosis H37Ra ITM-M006710 (ATCC 9431). The assay can be described thus: Antimycobacterial microdilution (resazurin) vs Mtb H37Ra. Conditions: Middlebrook 7H9, resazurin, recalculated from µg/mL, read-out: MIC Mtb H37Ra.
The subject of assay [7] is Candida tropicalis CCM 8264 (ATCC 750). The experiment in a line: Antifungal microdilution broth (EUCAST). Conditions: for MIC: read-out: MIC (visual detection).
Assay [8] has as its system Aspergillus fumigatus ATCC 204305. The experiment in a line: Antifungal microdilution broth (EUCAST). Conditions: for MIC: read-out: MIC (visual detection).
In assay [9] the test system is Candida parapsilosis CCM 8260 (ATCC 22019). The assay can be described thus: Antifungal microdilution broth (EUCAST). Conditions: Lodderomyces parapsilosis; for MIC: read-out: MIC (visual detection).
In assay [10] the test system is Aspergillus flavus CCM 8363. The experiment in a line: Antifungal microdilution broth (EUCAST). Conditions: for MIC: read-out: MIC (visual detection).
In assay [11] the test system is Candida albicans CCM 8320 (ATCC 24433). The experiment in a line: Antifungal microdilution broth (EUCAST). Conditions: for MIC: read-out: MIC (visual detection).
In assay [12] the test system is Trichophyton interdigitale CCM 8377 (ATCC 9533). The experiment in a line: Antifungal microdilution broth (EUCAST). Conditions: for MIC: read-out: MIC (visual detection).
In assay [13] the test system is Lichtheimia corymbifera CCM 8077. The experiment in a line: Antifungal microdilution broth (EUCAST). Conditions: for MIC: read-out: MIC (visual detection).
Assay [14] has as its system Candida krusei CCM 8271 (ATCC 6258). The assay can be described thus: Antifungal microdilution broth (EUCAST). Conditions: Pichia kudriavzevii; for MIC: read-out: MIC (visual detection).
Assay [15] concerns Staphylococcus aureus subsp. aureus CCM 4223 (ATCC 29213). The assay can be described thus: Antibacterial microdilution broth (EUCAST).
For assay [16], the system named is Staphylococcus epidermidis CCM 4418 (ATCC 12228). The experiment in a line: Antibacterial microdilution broth (EUCAST).
Assay [17] concerns Pseudomonas aeruginosa CCM 3955 (ATCC 27853). The experiment in a line: Antibacterial microdilution broth (EUCAST).
Assay [18] deals with Enterococcus faecalis CCM 4224 (ATCC 29212). The assay can be described thus: Antibacterial microdilution broth (EUCAST). Conditions: 24 h.
Assay [19] deals with methicillin-resistant Staphylococcus aureus subsp. aureus (MRSA) CCM 4750 (ATCC 43300). The experiment in a line: microbe, parasite or virus in culture. Conditions: 24 h.
Assay [20] deals with Klebsiella pneumoniae CCM 4415 (ATCC 10031). The assay can be described thus: Antibacterial microdilution broth (EUCAST). Conditions: Klebsiella pneumoniae.
Assay [21] deals with Acinetobacter baumannii DSM 30007 (ATCC 19606). The experiment in a line: Antibacterial microdilution broth (EUCAST). Conditions: 24 h.
Assay [22] concerns Escherichia coli CCM 3954 (ATCC 25922). The assay can be described thus: Antibacterial microdilution broth (EUCAST). Conditions: Escherichia coli.
Setting [23] is: read-out: MIC (spectrophotometric detection, 530 nm).
Setting [24] is: read-out: MIC (visual detection).
[25] abbreviates: 24 h, read-out: IC50 (spectrophotometric detection, 530 nm).

≈ marks a conversion by molar mass, not a printed value. Like-named read-outs stand apart in the source and are kept apart here. Bounds are passed on as bounds.

Turning to `O=C(O)c1cn(C2CC2)c2cc(N3CCNCC3)c(F)cc2c1=O` [CIP, ciprofloxacin, reference compound], the MIC is 0.75 µM (≈ 0.249 µg/mL) in assay [1]; 0.19 µM (≈ 0.063 µg/mL) in [2]; 0.05 µM (≈ 0.0166 µg/mL) in [3]; 1.51 µM (≈ 0.5 µg/mL) in [4]; 0.6 µM (≈ 0.199 µg/mL) in assay [5]; 1.51 µM (≈ 0.5 µg/mL) in assay [6].
By IC90 is commonly meant the concentration at which the effect reaches the 90% level. Turning to `C[C@@H]1[C@H](O)[C@@H](C)/C=C/C=C/C=C/C=C/C=C/C=C/C=C/[C@H](O[C@@H]2O[C@H](C)[C@@H](O)[C@H](N)[C@@H]2O)C[C@@H]2O[C@](O)(C[C@@H](O)C[C@@H](O)[C@H](O)CC[C@@H](O)C[C@@H](O)CC(=O)O[C@H]1C)C[C@H](O)[C@H]2C(=O)O` [amphotericin B, reference compound], the IC90 was found to be 1080 nM in [7] (ATCC 750 / CCM 8264 / CCM 8321, CCM 8321, 24 h, read-out: IC90 (spectrophotometric detection, 530 nm)); 4.33 µM in [8] (ATCC204305, Aspergillus fumigatus ATCC 204305, 48 h, read-out: IC90 (spectrophotometric detection, 530 nm)); 541 nM in assay [9] (Candida parapsilosis CCM 8260, 24 h, read-out: IC90 (spectrophotometric detection, 530 nm)); 4.33 µM in assay [10] (CCM8363, Aspergillus flavus CCM 8363, 48 h, read-out: IC90 (spectrophotometric detection, 530 nm)); 1080 nM in assay [11] (Candida albicans CCM 8320, 24 h, read-out: IC90 (spectrophotometric detection, 530 nm)); 1080 nM in [12] (Trichophyton interdigitale CCM 8377, read-out: IC90 (spectrophotometric detection, 530 nm)). Also, the IC90 came out at 1080 nM in assay [13] (CCM8077, Lichtheimia corymbifera CCM 8077, 48 h, read-out: IC90 (spectrophotometric detection, 530 nm)) and 1080 nM in assay [14] (Candida krusei CCM 8271, 24 h, read-out: IC90 (spectrophotometric detection, 530 nm)). In addition, the MIC in assay [7] (ATCC 750 / CCM 8264 / CCM 8321, CCM 8321, 24 h) was 1.08 µM (≈ 1 µg/mL); in assay [8] (ATCC204305, Aspergillus fumigatus ATCC 204305, 48 h), 4.33 µM (≈ 4 µg/mL); in [9] (Candida parapsilosis CCM 8260, 24 h), 0.541 µM (≈ 0.5 µg/mL); in assay [10] (CCM8363, Aspergillus flavus CCM 8363, 48 h), 4.33 µM (≈ 4 µg/mL); in [11] (Candida albicans CCM 8320, 24 h), 1.08 µM (≈ 1 µg/mL); in [12] (Trichophyton interdigitale CCM 8377), 1.08 µM (≈ 1 µg/mL). Also, the MIC came out at 1.08 µM (≈ 1 µg/mL) in [13] (CCM8077, Lichtheimia corymbifera CCM 8077, 48 h) and 1.08 µM (≈ 1 µg/mL) in [14] (Candida krusei CCM 8271, 24 h).
In the case of `CNC(C)C1CCC(N)C(OC2C(N)CC(N)C(OC3OCC(C)(O)C(NC)C3O)C2O)O1` (stereo not drawn) [gentamicin, reference compound], the MIC in assay [15] (S. aureus CCM 4223, 95% growth inhibition, 24 h, read-out: MIC (spectrophotometric detection, 530 nm)) is 2.09 µM (≈ 1 µg/mL); in assay [15] (S. aureus CCM 4223, 24 h, read-out: MIC (visual detection)) it was 1.05 µM (≈ 0.5 µg/mL); in assay [16] (S. epidermidis CCM 4418, 95% growth inhibition, 24 h, read-out: MIC (spectrophotometric detection, 530 nm)), 0.131 µM (≈ 0.0626 µg/mL); in [16] (S. epidermidis CCM 4418, 24 h, read-out: MIC (visual detection)) it was 0.131 µM (≈ 0.0626 µg/mL); in [17] (P. aeruginosa CCM 3955, 95% growth inhibition, 24 h, read-out: MIC (spectrophotometric detection, 530 nm)), 1.05 µM (≈ 0.5 µg/mL); in assay [17] (P. aeruginosa CCM 3955, 24 h, read-out: MIC (visual detection)) it was 1.05 µM (≈ 0.5 µg/mL). The MIC in [18] (setting [23]) was more than 16.8 µM; in assay [18] (setting [24]), more than 16.8 µM; in [19] (setting [23]), more than 16.8 µM; in assay [19] (setting [24]), more than 16.8 µM; in assay [20] (K. pneumoniae CCM 4415, 95% growth inhibition, 24 h, read-out: MIC (spectrophotometric detection, 530 nm)) it was 1.05 µM (≈ 0.5 µg/mL); in assay [20] (K. pneumoniae CCM 4415, 24 h, read-out: MIC (visual detection)), 1.05 µM (≈ 0.5 µg/mL). For the same compound, the MIC in [21] (setting [23]) was 16.8 µM (≈ 8 µg/mL); in [21] (setting [24]), 16.8 µM (≈ 8 µg/mL); in assay [22] (E. coli CCM 3954, 95% growth inhibition, 24 h, read-out: MIC (spectrophotometric detection, 530 nm)), 2.09 µM (≈ 1 µg/mL); in assay [22] (E. coli CCM 3954, 24 h, read-out: MIC (visual detection)), more than 2.09 µM.
In general, IC50 refers to the concentration needed to halve the response being measured. Regarding `C[C@@H](c1ncncc1F)[C@](O)(Cn1cncn1)c1ccc(F)cc1F` [voriconazole, reference compound], the IC50 in [7] (ATCC 750 / CCM 8264 / CCM 8321, 24 h, read-out: IC50 (spectrophotometric detection, 530 nm)) turned out to be 179 nM; in assay [8] (Aspergillus fumigatus, ATCC204305, 48 h, read-out: IC50 (spectrophotometric detection, 530 nm)), 716 nM; in [9] (setting [25]) it was 86 nM; in assay [10] (Aspergillus flavus, CCM8363, 48 h, read-out: IC50 (spectrophotometric detection, 530 nm)), 5.73 µM; in [11] (Candida albicans, 24 h, read-out: IC50 (spectrophotometric detection, 530 nm)), 86 nM; in assay [12] (Trichophyton interdigitale, read-out: IC50 (spectrophotometric detection, 530 nm)) it was 2860 nM. The IC50 in assay [13] (Lichtheimia corymbifera, CCM8077, 48 h, read-out: IC50 (spectrophotometric detection, 530 nm)) was more than 45.8 µM; in [14] (setting [25]), 716 nM. The MIC is more than 45.8 µM in [7] (ATCC 750 / CCM 8264 / CCM 8321, 24 h); 2.86 µM (≈ 1 µg/mL) in assay [8] (Aspergillus fumigatus, ATCC204305, 48 h); more than 45.8 µM in [9] (24 h); more than 45.8 µM in assay [10] (Aspergillus flavus, CCM8363, 48 h); more than 45.8 µM in assay [11] (Candida albicans, 24 h); more than 45.8 µM in [12] (Trichophyton interdigitale). For the same compound, the MIC is more than 45.8 µM in [13] (Lichtheimia corymbifera, CCM8077, 48 h) and more than 45.8 µM in assay [14] (24 h).
